Test results from patent publication US20260250325A1, “Antiviral Polypeptide Membrane Fusion Inhibitor, and Preparation Method and Application Thereof” (priority 2025, published 2026).
Where a SMILES comes first, the peptide text is derived from it. The star is where a group is joined. Succinyl(4-O-cholesteryl) = CC(C)CCC[C@@H](C)[C@H]1CC[C@H]2[C@@H]3CC=C4C[C@@H](OC(=O)CCC(=O)*)CC[C@]4(C)[C@H]3CC[C@]12C

Key:
hMPV-N46 (127-172) = biological target: T1, hMPV-N46 (127-172) (Human metapneumovirus, UniProt Q6WB98); assay: SPR affinity to hMPV-N46 coupled on CM5 chip; assay type: binding
T1 construct: hMPV-N46 (127-172)
Protocol: (§1) hMPV and hPIV were two viruses having a typical Class I fusion protein-F protein. An F protein precursor F0 was cracked into F1 and F2 subunits. […] When the compound flowed through a chip surface, changes in an SPR signal were monitored in real time, binding and dissociation processes were recorded, and a binding rate constant (ka) and a dissociation rate constant (kd) were further obtained through kinetic analysis, thereby calculating an equilibrium dissociation constant (KD=kd/ka).
(§2) A CM5 chip with a catalog number 29149603, an amino coupling reagent kit with a catalog number BR100050, HBS-EP+Buffer (10×), sodium acetate (pH 4.0), and a 10 mM glycine-HCl buffer (pH 2.0) were all purchased from GE Health.
(§3) CM5 chip coupling: Channels 2 and 4 of the CM5 chip were activated for 7 min by using a freshly-prepared mixture of 50 mM Hydroxy succinimide (NHS) and 200 mM 1-(3-Dimethylaminopropyl)-3-ethylcarbodiimide (EDC) according to 1:1; and then, hMPV-N46 or hPIV-N51 was diluted and dissolved with sodium acetate with 4.0 pH to a concentration of 30 μM, with a flow rate of 10 μl/min and time of 600 s. An experimental buffer was HBS-EP+buffer (1×). Finally, the chip was blocked with 1 M ethanolamine. The instrument was set to a temperature of 25° C.
(§4) Affinity detection: the buffer used in the experiment was HBS-EP+buffer (1×), and a multi-cycle dynamic mode was used. Channels 1 and 3 of the chip served as blank reference channels; polypeptides to be detected sequentially flowed through Channels 2 and 4 at concentrations of 0 μM, 0.04 µM, 0.12 µM, 0.37 μM, 1.11 µM, 3.33 µM, 10 µM, and 30 μM; the flow rate was 30 μl/min, binding was performed for 180 s, and dissociation was performed for 120 s. Finally, the chip was regenerated by injecting 10 mM glycine (pH 2.0). The instrument was set to a temperature of 25° C.

hPIV-N51 (139-189) = biological target: T2, hPIV-N51 (139-189) (Human parainfluenza 3 virus, UniProt P06828); assay: SPR affinity to hPIV-N51 coupled on CM5 chip; assay type: binding
T2 construct: hPIV-N51 (139-189)
Protocol: as §1, §2, §3, §4

hMPV A2 = assay type: cell-based; conditions: Vero cells, plaque reduction
Protocol: (§5) African green monkey kidney cells (Vero) were sourced from the ATCC, with catalog number CCL-81. The cells were cultured in a DMEM culture solution in which 10% fetal bovine serum, 1% non-essential amino acids, 1% sodium pyruvate, 1% L-glutamine, 100 U/ml penicillin, and 100 μg/ml streptomycin were added.
(§6) A hMPV plaque experiment culture medium consisted of an Opti-MEM culture solution added with 1% non-essential amino acids, 100 U/mL penicillin, and 100 μg/mL streptomycin.
(§7) hMPV virus strains A2 and B1 were constructed by WuXi App Tec.
(§8) This study used a plaque reduction experiment to detect the in-vitro activity of a test sample against the hMPV virus strains A2 and B1.
(§9) The test sample and an experimental system were tested at 8 concentrations in duplicated wells. The Vero cells were digested with trypsin and then diluted to a concentration of 400,000 cells per milliliter by using a cell culture solution containing 2% serum. The diluted cells were added to a 96-well cell test board, with 100 μL per well, corresponding to 40000 cells per well. The cells were cultured overnight in a 37° C. incubator with 5% CO2.
(§10) On the second day, the test sample was diluted in an experimental culture medium at a fold ratio. The sample diluted at a fold ratio and an equal volume of virus (approximately 200 PFU per well) were well mixed and incubated at 33° C. in 5% CO2 for 1 h. Then, the culture solution in the 96-well cell test board was discarded, the sample virus mixed solution (100 μL) was added to the 96-well cell culture plate, and incubated at 37° C. in 5% CO2 for 2 hours. After 2 h, the sample virus mixed solution was discarded, 200 μL of an experiment culture medium containing the test sample with a corresponding concentration was added, and the culture solution contained 0.8% CMC and 5 μg/ml trypsin. A final concentration of DMSO in the culture solution was 0.5%. A system control antibody was directly added to the experiment culture solution containing 0.8% CMC and 5 μg/ml trypsin. A cell control (cells, without compound treatment or viral infection) and a viral control (cell infection virus, without compound treatment) were set. The cells were cultured for 1 day in the 33° C. incubator with 5% CO2.
(§11) The cells were fixed with 4% paraformaldehyde, and then permeabilization was performed with 0.5% Triton X-100. After the plate was washed with DPBS, a hMPV specific antibody (1:2000 dilution) was added and incubated at 37° C. for 1.5 h. Then, a secondary antibody (1:1000 dilution) was added and incubated at 37° C. for 1 hour. The secondary antibody was discarded, a TrueBlue solution was added, dyeing was performed for approximately 10 minutes; and the plate was washed with running water and then air-dried, and the number of spots in each well was counted by using a microplate imaging counter.
(§12) Raw data was used for analyzing the antiviral activity of the test samples. A calculation formula was shown as follows.
(§13) % inhibition rate=100−(sample value-cell control average value)/(virus control average value-cell control average value)×100
(§14) Non-linear fitting analysis was performed on the inhibition rate of the sample by using GraphPad Prism (version 10), so as to calculate an EC50 value for the sample. A fitting formula was log (inhibitor) vs. response-Variable slope (four parameters).

hMPV B1 = assay type: cell-based; conditions: Vero cells, plaque reduction
Protocol: as §5, §6, §7, §8, §9, §10, §11, §12, §13, §14

T2 sequence (P06828 139-189): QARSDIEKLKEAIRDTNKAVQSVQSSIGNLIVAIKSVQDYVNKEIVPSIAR
T1 sequence (Q6WB98 127-172): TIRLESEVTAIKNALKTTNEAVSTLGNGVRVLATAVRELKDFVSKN

Molecule	Kd (hMPV-N46 (127-172)) [nM]	Kd (hPIV-N51 (139-189)) [nM]	EC50 (hMPV A2) [nM]	EC50 (hMPV B1) [nM]
CC[C@H](C)[C@H](NC(=O)[C@H](CCCCN)NC(=O)[C@H](CCCCN)NC(=O)[C@H](CC(C)C)NC(=O)[C@H](CO)NC(=O)[C@H](CCC(=O)O)NC(=O)[C@H](CCC(=O)O)NC(=O)[C@@H](NC(=O)[C@H](CCCCN)NC(=O)[C@H](CCCCN)NC(=O)[C@H](CC(N)=O)NC(=O)[C@@H](NC(=O)[C@H](CCC(=O)O)NC(=O)[C@H](CCC(=O)O)NC(=O)[C@@H](NC(=O)[C@H](CCCCN)NC(=O)[C@H](CCCCN)NC(=O)[C@H](CC(=O)O)NC(=O)[C@H](Cc1ccccc1)NC(=O)[C@H](CCC(=O)O)NC(=O)[C@H](CC(=O)O)NC(=O)[C@H](Cc1c[nH]c2ccccc12)NC(C)=O)[C@@H](C)CC)C(C)C)[C@@H](C)CC)C(=O)N[C@@H](CCC(=O)O)C(=O)N[C@@H](CCC(=O)O)C(=O)N[C@@H](CO)C(=O)N[C@@H](CC(=O)O)C(=O)N[C@@H](CCCCN)C(=O)N[C@@H](CCCCN)C(=O)N[C@@H](CC(C)C)C(=O)N[C@@H](CCC(=O)O)C(=O)N[C@@H](CCC(=O)O)C(=O)N[C@H](C(=O)N[C@@H](CC(N)=O)C(=O)N[C@@H](CCC(=O)O)C(=O)N[C@@H](C)C(=O)N[C@@H](C)C(=O)N[C@@H](C)C(=O)N[C@@H](CCCCN)C(=O)N[C@@H](CCCCNC(=O)CCC(=O)O[C@H]1CC[C@@]2(C)C(=CC[C@H]3[C@@H]4CC[C@H]([C@H](C)CCCC(C)C)[C@@]4(C)CC[C@@H]32)C1)C(N)=O)C(C)C [Compound 41] (Ac-WDEFDKKIEEVNKKIEESLKKIEESDKKLEEVNEAAAKK(Succinyl(4-O-cholesteryl))-NH2)	4730	492	11.7	9.46
CC[C@H](C)[C@H](NC(=O)[C@H](CCCCN)NC(=O)[C@H](CCC(=O)O)NC(=O)[C@H](CC(C)C)NC(=O)[C@H](CO)NC(=O)[C@H](CCC(N)=O)NC(=O)[C@H](CC(N)=O)NC(=O)[C@@H](NC(=O)[C@H](CCCCN)NC(=O)[C@H](CCC(=O)O)NC(=O)[C@H](CC(N)=O)NC(=O)[C@@H](NC(=O)[C@H](CCC(N)=O)NC(=O)[C@H](CO)NC(=O)[C@H](C)NC(=O)[C@H](CC(=O)O)NC(=O)[C@H](Cc1ccccc1)NC(=O)[C@@H](NC(=O)[C@H](CC(C)C)NC(=O)[C@H](CCC(=O)O)NC(=O)[C@H](CC(=O)O)NC(=O)[C@H](Cc1ccc(O)cc1)NC(C)=O)C(C)C)C(C)C)[C@@H](C)CC)C(=O)N[C@@H](CCCNC(=N)N)C(=O)N[C@@H](CCCCN)C(=O)N[C@@H](CO)C(=O)N[C@@H](CC(=O)O)C(=O)N[C@@H](CCC(=O)O)C(=O)N[C@@H](CC(C)C)C(=O)N[C@@H](CC(C)C)C(=O)N[C@@H](Cc1c[nH]cn1)C(=O)N[C@@H](CC(N)=O)C(=O)N[C@H](C(=O)NCC(=O)N[C@@H](CO)C(=O)NCC(=O)N[C@@H](CO)C(=O)NCC(=O)N[C@@H](CCCCNC(=O)CCC(=O)O[C@H]1CC[C@@]2(C)C(=CC[C@H]3[C@@H]4CC[C@H]([C@H](C)CCCC(C)C)[C@@]4(C)CC[C@@H]32)C1)C(N)=O)C(C)C [Compound 25] (Ac-YDELVFDASQVNEKINQSLEKIRKSDELLHNVGSGSGK(Succinyl(4-O-cholesteryl))-NH2)	21100	74600	86.4	38.1
Ac-WDEFDASISQVNEKINQSLEEIRKSDELLHNVNAGLGSGSGK(Succinyl(4-O-cholesteryl))-NH2 [Compound 27]	2920	812	78.3	10.5
Ac-LVKKIDEFDASISQVNEKINQSLEEIRKSDELLHNVGSGSGK(Succinyl(4-O-cholesteryl))-NH2 [Compound 29]	48.2	1730	41.6	11.1
CC[C@H](C)[C@H](NC(=O)[C@H](CCCCN)NC(=O)[C@H](CCCCN)NC(=O)[C@H](CC(C)C)NC(=O)[C@H](CO)NC(=O)[C@H](CCC(=O)O)NC(=O)[C@H](CCC(=O)O)NC(=O)[C@@H](NC(=O)[C@H](CCCCN)NC(=O)[C@H](CCCCN)NC(=O)[C@H](CC(N)=O)NC(=O)[C@@H](NC(=O)[C@H](CCC(=O)O)NC(=O)[C@H](CCC(=O)O)NC(=O)[C@@H](NC(=O)[C@H](CCCCN)NC(=O)[C@H](CCCCN)NC(=O)[C@H](CCCCN)NC(=O)[C@H](CC(=O)O)NC(=O)[C@H](Cc1ccccc1)NC(=O)[C@H](CCC(=O)O)NC(=O)[C@H](CC(=O)O)NC(C)=O)[C@@H](C)CC)C(C)C)[C@@H](C)CC)C(=O)N[C@@H](CCC(=O)O)C(=O)N[C@@H](CCC(=O)O)C(=O)N[C@@H](CO)C(=O)N[C@@H](CC(=O)O)C(=O)N[C@@H](CCCCN)C(=O)N[C@@H](CCCCN)C(=O)N[C@@H](CC(C)C)C(=O)N[C@@H](CCC(=O)O)C(=O)N[C@@H](CCC(=O)O)C(=O)N[C@H](C(=O)NCC(=O)N[C@@H](CO)C(=O)NCC(=O)N[C@@H](CO)C(=O)NCC(=O)N[C@@H](CCCCNC(=O)CCC(=O)O[C@H]1CC[C@@]2(C)C(=CC[C@H]3[C@@H]4CC[C@H]([C@H](C)CCCC(C)C)[C@@]4(C)CC[C@@H]32)C1)C(N)=O)C(C)C [Compound 15] (Ac-DEFDKKKIEEVNKKIEESLKKIEESDKKLEEVGSGSGK(Succinyl(4-O-cholesteryl))-NH2)	38.1	1390	17.9	5.18
CC[C@H](C)[C@H](NC(=O)[C@H](CCCCN)NC(=O)[C@H](CCCCN)NC(=O)[C@H](CC(C)C)NC(=O)[C@H](CO)NC(=O)[C@H](CCC(=O)O)NC(=O)[C@H](CCC(=O)O)NC(=O)[C@@H](NC(=O)[C@H](CCCCN)NC(=O)[C@H](CCCCN)NC(=O)[C@H](CC(N)=O)NC(=O)[C@@H](NC(=O)[C@H](CCC(=O)O)NC(=O)[C@H](CCC(=O)O)NC(=O)[C@@H](NC(=O)[C@H](CCCCN)NC(=O)[C@H](CCCCN)NC(=O)[C@H](CC(=O)O)NC(=O)[C@H](Cc1ccccc1)NC(=O)[C@H](CCC(=O)O)NC(=O)[C@H](CC(=O)O)NC(=O)[C@H](CO)NC(C)=O)[C@@H](C)CC)C(C)C)[C@@H](C)CC)C(=O)N[C@@H](CCC(=O)O)C(=O)N[C@@H](CCC(=O)O)C(=O)N[C@@H](CO)C(=O)N[C@@H](CC(=O)O)C(=O)N[C@@H](CCCCN)C(=O)N[C@@H](CCCCN)C(=O)N[C@@H](CC(C)C)C(=O)NCC(=O)N[C@@H](CO)C(=O)NCC(=O)N[C@@H](CO)C(=O)NCC(=O)N[C@@H](CCCCNC(=O)CCC(=O)O[C@H]1CC[C@@]2(C)C(=CC[C@H]3[C@@H]4CC[C@H]([C@H](C)CCCC(C)C)[C@@]4(C)CC[C@@H]32)C1)C(N)=O [Compound 20] (Ac-SDEFDKKIEEVNKKIEESLKKIEESDKKLGSGSGK(Succinyl(4-O-cholesteryl))-NH2)	19100	6800	7.47	4.27
